Test results as given in patent publication US7932262B2 (Novartis AG, priority 2006, dated 2011).

What was measured:
PDK1 kinase = molecular target: T1, PDK1 kinase (Homo sapiens, UniProt O15530); assay: PDK1 Kinase Alpha Screen Assay; assay type: biochemical; settings: read-out: PDK1 IC50
T1 sequence (O15530 1-556): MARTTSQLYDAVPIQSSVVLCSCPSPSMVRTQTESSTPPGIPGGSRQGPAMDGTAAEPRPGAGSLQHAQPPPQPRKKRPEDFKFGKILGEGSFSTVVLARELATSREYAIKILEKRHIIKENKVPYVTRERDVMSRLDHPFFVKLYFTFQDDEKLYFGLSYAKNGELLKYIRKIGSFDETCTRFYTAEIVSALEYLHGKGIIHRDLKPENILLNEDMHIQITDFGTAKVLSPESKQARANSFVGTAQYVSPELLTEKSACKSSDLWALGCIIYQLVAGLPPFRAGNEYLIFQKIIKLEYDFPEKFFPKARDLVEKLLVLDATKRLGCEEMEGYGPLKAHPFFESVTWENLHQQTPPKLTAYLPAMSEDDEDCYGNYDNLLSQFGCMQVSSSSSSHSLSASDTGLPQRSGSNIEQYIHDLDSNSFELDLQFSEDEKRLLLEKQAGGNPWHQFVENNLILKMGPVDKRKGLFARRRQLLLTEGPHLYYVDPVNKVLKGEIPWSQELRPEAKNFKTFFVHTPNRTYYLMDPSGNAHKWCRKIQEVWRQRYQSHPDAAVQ
How it was run: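 AlphaScreen readout: phospho-peptide captured by phospho-(Ser/Thr) PKA substrate antibody (0.3 mg/ml) on protein A acceptor beads, biotin peptide on streptavidin donor beads (25 μg/ml each), overnight at room temperature. Kinase step used 50 nM PDK1-4 peptide, 10 uM ATP, 3-18 hours.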

[1] = system: pAkt308 (phosphorylation of Akt at T308) in PC-3 cells; assay: pAkt T308 ECL Assay in PC-3 cells; assay type: cell-based; settings: Homo sapiens, 6 h, six hours with compound, read-out: PAKT308 PC3 IC50
Experimental: VI. The pAkt^T308 ECL Assay Protocol
On Day 1, PC-3 cells were seeded at 15,000 cells/well in 100 μL/well ([…]) growth media into black-walled, clear bottom, poly-L-lysine coated plates. The cells were incubated overnight in a 37° C., 5% CO2 incubator.
On Day 2, a MSD ECL plate was blocked for two hours with 150 μL per well of 3% MSD blocker A.
Test compounds were diluted to 500× in DMSO and then were subjected to further serial dilution using a BioMek 2000 instrument. DMSO diluted compounds were then diluted into growth media and then added to the cell plates.
The cell plates incubated with compounds for six hours in a 37° C., 5% CO2 incubator after which the growth medium was removed and 55 μl of MSD lysis buffer was added to cell plates on ice. The plates were lysed on ice for five minutes followed by 15 minutes of vigorous shaking on a plate shaker at 4° C. The blocked MSD assay plates were washed twice with 1×MSD wash buffer followed by the addition of cell lysate as follows: 30 μl of cell lysate was added to the pAkt308 plates and 13 μl of lysate+12 μl lysis buffer was added to the tAkt plates. The plates were then sealed and shaken at 4° C. overnight.
On Day 3, the MSD plates were washed four times with 1×MSD wash buffer then, 25 μl/well of MSD SULFO-TAG antibodies diluted to 10 nM final concentration in 1% blocker. A buffer was added to the antibody diluent which was added to assay plates. The plates were then sealed and incubated at RT for 1.5 hour. The plates were then washed twice with 1×MSD wash buffer followed by the addition of 150 μl/well of 1.5×MSD read buffer. The plates were read immediately after the addition of read buffer using a Trilux instrument. […]

A2780 cells = assay: Cell Proliferation Assay (Cell Titer Glo), A2780; assay type: cell-based; settings: Homo sapiens, 72 h; A2780 cells, 3 days incubation; read-out: CPEC50 A2780
How it was run: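 Following a 3-day compound exposure (37° C., 5% CO2) of A2780 or PC3MM cells plated at 1000 per well, viability was measured by Cell Titer Glo luminescence in fresh medium, read 10 min after reagent addition.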

PC-3 cells = assay: Cell Proliferation Assay (Cell Titer Glo), PC-3 cell line; assay type: cell-based; settings: Homo sapiens, PC-3, 72 h, PC-3 cells, 3 days incubation; read-out: CP EC50 PC3
How it was run: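 Cell Titer Glo luminescence, read after fresh medium replaced the dosing medium, gave viability of PC-3 cells plated at 1000 cells/well. Compounds, 1:3 serially diluted in DMSO at 500× and then in medium, were added after 3-5 h adhesion and incubated 3 days at 37° C.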

Compound	IC50 (PDK1 kinase) [µM]	IC50 [1] [µM]	EC50 (A2780 cells) [µM]	EC50 (PC-3 cells) [µM]
NS(=O)(=O)c1ccc(Nc2ncc3ccc(-c4ncco4)c(OC4CCNCC4)c3n2)cc1 [Compound 26, 4-[7-Oxazol-2-yl-8-(piperidin-4-yloxy)-quinazolin-2-ylamino]-benzenesulfonamide]	< 5	5 to 10	< 5	
NS(=O)(=O)c1ccc(Nc2ncc3ccc(-c4nccs4)c(OC4CCNCC4)c3n2)cc1 [Compound 27, 4-[8-(Piperidin-4-yloxy)-7-thiazol-2-yl-quinazolin-2-ylamino]-benzenesulfonamide]	< 5	< 5	< 5	
NS(=O)(=O)c1ccc(Nc2ncc3ccc(-c4ccccn4)c(OC4CCNCC4)c3n2)cc1 [Compound 28, 4-[8-(Piperidin-4-yloxy)-7-pyridin-2-yl-quinazolin-2-ylamino]-benzenesulfonamide]	< 5	5 to 10	< 5	
CN1CCC(Oc2cccc3cnc(Nc4ccc(S(N)(=O)=O)cc4)nc23)CC1 [Compound 35, 4-[8-(1-Methyl-piperidin-4-yloxy)-quinazolin-2-ylamino]-benzenesulfonamide]	< 5	< 5	< 5	
NS(=O)(=O)c1ccc(Nc2ncc3cccc(O[C@@H]4CCNC4)c3n2)cc1 [Compound 37, 4-[8-((R)-Pyrrolidin-3-yloxy)-quinazolin-2-ylamino]-benzenesulfonamide]	< 5	5 to 10	< 5	
CNC(=O)c1ccc(Nc2ncc3cccc(OC4CCN(C(C)C)CC4)c3n2)cc1 [Compound 43, 4-[8-(1-Isopropyl-piperidin-4-yloxy)-quinazolin-2-ylamino]-N-methyl-benzamide]	< 5	< 5	< 5	
C#Cc1cc(OC2CCN(C(C)C)CC2)c2nc(Nc3ccc(S(N)(=O)=O)cc3)ncc2c1 [Compound 86, 4-[6-Ethynyl-8-(1-isopropyl-piperidin-4-yloxy)-quinazolin-2-ylamino]-benzenesulfonamide]	< 5	< 5		< 5

Results, then the molecule that gave them:

IC50 (PDK1 kinase) [µM]	IC50 [1] [µM]	EC50 (A2780 cells) [µM]	EC50 (PC-3 cells) [µM]	Compound
< 5	5 to 10	< 5		O=S(=O)(c1cccc(Nc2ncc3cccc(OC4CCNCC4)c3n2)c1)N1CCOCC1 [Compound 5, [3-(Morpholine-4-sulfonyl)-phenyl]-[8-(piperidin-4-yloxy)-quinazolin-2-yl]-amine]
< 5	5 to 10	< 5		NS(=O)(=O)c1ccc(Nc2ncc3ccc(-c4cccnc4)c(OC4CCNCC4)c3n2)cc1 [Compound 18, 4-[8-(Piperidin-4-yl-oxy)-7-pyridin-3-yl-quinazolin-2-ylamino]-benzenesulfonamide]
< 5	5 to 10	< 5		Nc1ccc(-c2ccc3cnc(Nc4ccc(S(N)(=O)=O)cc4)nc3c2OC2CCNCC2)cn1 [Compound 21, 4-[7-(6-Amino-pyridin-3-yl)-8-(piperidin-4-yloxy)-quinazolin-2-ylamino]-benzenesulfonamide]
< 5	5 to 10	< 5		COc1cncc(-c2ccc3cnc(Nc4ccc(S(N)(=O)=O)cc4)nc3c2OC2CCNCC2)c1 [Compound 23, 4-[7-(5-Methoxy-pyridin-3-yl)-8-(piperidin-4-yloxy)-quinazolin-2-ylamino]-benzenesulfonamlde]
< 5	5 to 10	< 5		NS(=O)(=O)c1ccc(Nc2ncc3ccc(-c4cn[nH]c4)c(OC4CCNCC4)c3n2)cc1 [Compound 24, 4-[8-(Piperidin-4-yloxy)-7-(1H-pyrazol-4-yl)-quinazolin-2-ylamino]-benzenesulfonamide]
< 5	5 to 10	< 5		Cn1cc(-c2ccc3cnc(Nc4ccc(S(N)(=O)=O)cc4)nc3c2OC2CCNCC2)cn1 [Compound 25, 4-[7-(1-Methyl-1H-pyrazol-4-yl)-8-(piperidin-4-yloxy)-quinazolin-2-ylamino]-benzenesulfonamide]
